# Test results published in patent publication US20050271676A1, “Inducing cellular immune responses to human immunodeficiency virus-1 using peptide and nucleic acid compositions” (Epimmune Inc., priority 1993, published 2005).
# No end group written: not given here.
# Assays:
# [1] = target: HLA-B51 (B*5101) (Homo sapiens, UniProt P01889, A329T/A93T/A95T/C349S/D138N/D201E/D98Y/E187L/E204Q/E69T/G107R/I218V/K202T/L105A/L119W/N104I/Q94N/R106L/R155S/R180L/S101N/S121T/S35A/S48A/V306I/V36M/Y195H/Y91F); assay: purified HLA class I binding assay, B51 (B*5101)
# [2] = target: HLA-B*5401 (Homo sapiens, UniProt P01889, A329T/C349S/D138N/D201E/E176V/E187T/E204Q/E69G/I76V/K202T/L119W/R155S/R180L/S121T/S35A/S48A/V127L/V306I/V36M/Y140L); assay: biochemical
# [3] = target: T1, HLA-B*0702 (Homo sapiens, UniProt P01889); assay: purified HLA class I binding assay, B*0702
# T1 construct: endogenous in cells; host or cells: GM3107
# [4] = target: HLA-B*3501 (Homo sapiens, UniProt P01889, A329T/A93T/A95T/C349S/D201E/D98Y/E176V/E187L/E204Q/E69T/I218V/K202T/L119I/Q94N/R155S/R180L/S121R/S35A/S48A/T118I/V127L/V306I/V36M/Y140S/Y91F); assay: purified HLA class I binding assay, B*3501
# [5] = target: HLA-B*5301 (Homo sapiens, UniProt P01889, A329T/A93T/A95T/C349S/D201E/D98Y/E176V/E187L/E204Q/E69T/G107R/I218V/K202T/L105A/L119I/N104I/Q94N/R106L/R155S/R180L/S101N/S121R/S35A/S48A/T118I/V127L/V306I/V36M/Y140S/Y91F); assay: purified HLA class I binding assay, B*5301
# [6] = target: T2, HLA-DRB1*0301 (DR3) (Homo sapiens, UniProt P01903+P01911, A100K/A102G/A103R/A169T/F55Y/I96L/K41T/L162R/M171V/P40S/Q125H/Q178H/Q39Y/R42S/S66N/T106N/T262R/W38E/Y61H); assay: purified HLA class II binding assay, DRB1*0301 (DR3), pH 4.5
# T2 construct: endogenous in cells; host or cells: MAT
# [7] = target: T3, HLA-DRB1*0401 (DR4w4) (Homo sapiens, UniProt P01903+P01911, A100K/A169T/F76Y/I96L/K127E/L162R/M171V/N62H/P40V/Q125Y/R42H/S133A/S149N/S66Y/V115G/V209L/W38E); assay: purified HLA class II binding assay, DRB1*0401 (DR4w4)
# T3 construct: endogenous in cells; host or cells: Preiss
# [8] = target: HLA-DRB1*0405 (DR4w15) (Homo sapiens, UniProt P01903+P01911, A100R/A169T/D86S/F76Y/I96L/K127E/L162R/M171V/N62H/P40V/Q125Y/R42H/S133A/S149N/S66Y/V115G/V209L/W38E); assay: purified HLA class II binding assay, DRB1*0405 (DR4w15)
# [9] = target: T4, HLA-DRB1*0701 (DR7) (Homo sapiens, UniProt P01903+P01911, A100R/A102G/A103Q/D57E/D86V/E43K/F76Y/K127E/L162R/M171V/P40G/Q125H/Q99D/R33Q/R42Y/R54Q/S133A/S66F/T210M/V115G/Y107V/Y59L/Y89S); assay: biochemical; assay type: binding
# T4 construct: endogenous in cells; host or cells: Pitout
# [10] = target: T5, HLA-DRB1*0802 (DR8w2) (Homo sapiens, UniProt P01903+P01911, A100R/A103L/A169T/F76Y/H45Y/I96F/K41T/L162R/M171V/P40S/Q125H/Q178H/Q39Y/Q99D/R218S/R42G/S66Y/V115G/W38E); assay: biochemical; assay type: binding
# T5 construct: endogenous in cells
# [11] = target: T6, HLA-DRB1*0901 (DR9) (Homo sapiens, UniProt P01903+P01911, A100R/A103E/D57H/D86V/F55Y/F60I/F76Y/I96F/K127E/L162R/M171V/P40D/Q125H/Q99R/R33Q/R42F/S133A/S66N/T210M/V115G/W38K/Y107V/Y59G/Y89S); assay: biochemical; assay type: binding
# T6 construct: endogenous in cells
# [12] = target: T7, HLA-DRB1*1101 (DR5w11) (Homo sapiens, UniProt P01903+P01911, A100R/A169T/A87E/I96F/K41T/L162R/M171V/P40S/Q125H/Q178H/Q39Y/Q99D/R42S/S66Y/T262R/V115G/W38E); assay: biochemical; assay type: binding
# T7 construct: endogenous in cells
# [13] = target: T8, HLA-DRB1*1201 (DR5w12) (Homo sapiens, UniProt P01903+P01911, A100R/A169T/D57E/D86V/F55L/H45Y/K41T/L162R/M171V/P40S/Q125H/Q178H/Q39Y/Q99D/R42G/S66L/T262R/V114A/V67L/W38E/Y59H/Y61H/Y89S); assay: purified HLA class II binding assay, DRB1*1201 (DR5w12)
# T8 construct: endogenous in cells
# [14] = target: HLA-DRB1*1302 (DR6w19) (Homo sapiens, UniProt P01903+P01911, A100E/A169T/K41T/L162R/M171V/P40S/Q125H/Q178H/Q39Y/Q99D/R42S/S66N/T262R/V115G/W38E/Y61H); assay: purified HLA class II binding assay, DRB1*1302 (DR6w19)
# [15] = target: T9, HLA-DRB1*1501 (DR2w2β1) (Homo sapiens, UniProt P01903+P01911); assay: purified HLA class II binding assay, DRB1*1501 (DR2w2β1)
# T9 construct: expressed in transfected cells
# [16] = target: T10, HLA-DRB5*0101 (DR2w2β2) (Homo sapiens, UniProt P01903+Q30154); assay: biochemical; assay type: binding
# T10 construct: expressed in transfected cells
# [17] = system: PBMC from patients infected with HIV; assay: recall CTL responses, PBMC from HIV-infected patients, 51Cr release; assay type: cell-based, human
# [18] = system: HLA-A11/K^b transgenic mice; assay: CTL induction in HLA-A11/K^b transgenic mice after peptide immunization; assay type: in vivo; conditions: protocol as for HLA-A2 transgenic mice
# [19] = target: HLA-A*0203 (Homo sapiens, UniProt P04439, A173T/D140Y/D185E/D98H/E277Q/G131W/G231S/I119V/I121R/I166T/I218V/L180W/L300P/L318F/N151K/N90K/P208A/P217A/Q86G/Q94H/R138H/R169H/T345S); assay: purified HLA class I binding assay, A*0203
# [20] = target: HLA-A*0206 (Homo sapiens, UniProt P04439, D140Y/D185E/D98H/E176V/E277Q/F33Y/G131W/G231S/I119V/I121R/I166T/I218V/L300P/L318F/N151K/N90K/P208A/P217A/Q86G/Q94H/R138H/R169H/T345S); assay: purified HLA class I binding assay, A*0206
# [21] = target: HLA-A*6802 (Homo sapiens, UniProt P04439, A269V/D140Y/D185E/E176V/E277Q/E87N/F33Y/G231S/I121R/I166T/I218V/L180W/L300P/L318F/N151K/P208A/P217A/Q86R/R138H/R169H/S129P/T345S/V36M); assay: purified HLA class I binding assay, A*6802
# [22] = system: A*0201/K^b transgenic mice; assay: CTL induction in A*0201/K^b transgenic mice after peptide immunization; assay type: in vivo
# [23] = HIV DR super motif peptides, unit not given
# T2 sequence (P01903 26-254 partner, other chains not shown): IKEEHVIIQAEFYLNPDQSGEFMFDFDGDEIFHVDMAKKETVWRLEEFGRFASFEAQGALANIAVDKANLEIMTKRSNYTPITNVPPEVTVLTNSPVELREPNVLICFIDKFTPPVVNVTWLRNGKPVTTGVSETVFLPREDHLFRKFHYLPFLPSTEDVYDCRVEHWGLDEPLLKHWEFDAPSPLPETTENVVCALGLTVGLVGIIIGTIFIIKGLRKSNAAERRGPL
# T7 sequence (P01903 26-254, other chains not shown): as the sequence (P01903 26-254 partner, other chains not shown) above
# T3 sequence (P01903 26-254 partner, other chains not shown): as above
compound,measurement,setting,value
CC(C)C[C@H](NC(=O)[C@H](CO)NC(=O)[C@H](CCCNC(=N)N)NC(=O)[C@H](CC(C)C)NC(=O)[C@H](CO)NC(=O)[C@H](C)NC(=O)[C@H](CC(C)C)NC(=O)[C@@H]1CCCN1C(=O)[C@@H](N)Cc1ccc(O)cc1)C(=O)N[C@@H](Cc1ccccc1)C(=O)O [15.0268],IC50,[1],39.3 nM
same,IC50,[2],714 nM
CC(C)C[C@H](NC(=O)[C@@H]1CCCN1C(=O)[C@@H](NC(=O)[C@H](CCC(N)=O)NC(=O)[C@@H]1CCCN1C(=O)[C@H](CCCNC(=N)N)NC(=O)[C@@H](NC(=O)[C@@H]1CCCN1C(=O)[C@@H](N)Cc1ccccc1)C(C)C)C(C)C)C(=O)O [1146.01],IC50,[3],15.7 nM
same,IC50,[4],43 nM
same,IC50,[1],11.6 nM
same,IC50,[5],482 nM
CC[C@H](C)[C@H](NC(=O)CNC(=O)[C@H](CCCCN)NC(=O)[C@H](Cc1c[nH]cn1)NC(=O)[C@H](C)NC(=O)[C@@H]1CCCN1C(=O)[C@@H](NC(=O)[C@H](Cc1c[nH]c2ccccc12)NC(=O)[C@H](C)NC(=O)[C@H](CC(C)C)NC(=O)[C@H](Cc1ccc(O)cc1)NC(=O)[C@@H](NC(=O)[C@H](CCCCN)NC(=O)[C@@H](N)CCC(=O)O)C(C)C)C(C)C)C(=O)NCC(=O)O [Peptide 27.0361],IC50,[6],3230 nM
same,IC50,[7],9.3 nM
same,IC50,[8],27 nM
same,IC50,[9],18 nM
same,IC50,[10],31 nM
same,IC50,[11],144 nM
same,IC50,[12],37 nM
same,IC50,[13],6480 nM
same,IC50,[14],3500 nM
same,IC50,[15],21 nM
same,IC50,[16],4.9 nM
CC(C)[C@H](N)C(=O)N[C@H](C(=O)N[C@H](C(=O)N[C@@H](Cc1ccc(O)cc1)C(=O)N[C@@H](Cc1ccc(O)cc1)C(=O)NCC(=O)N[C@H](C(=O)N1CCC[C@H]1C(=O)N[C@H](C(=O)N[C@@H](Cc1c[nH]c2ccccc12)C(=O)N[C@@H](CCCCN)C(=O)O)C(C)C)C(C)C)C(C)C)[C@@H](C)O [Peptide 1069.47],immunogenicity in HIV-infected patients,[17]; shown by collaborators,immunogenic in HIV-infected patients
same,induction of CTL in HLA-A11 transgenic mice,[18],induced CTL responses in transgenic mice
CC[C@H](C)[C@H](NC(=O)CNC(=O)[C@H](Cc1c[nH]c2ccccc12)NC(=O)[C@@H](NC(=O)[C@@H](NC(=O)[C@H](CC(C)C)NC(=O)[C@H](CCC(N)=O)NC(=O)[C@H](CC(C)C)NC(=O)[C@@H](N)CC(C)C)[C@@H](C)O)C(C)C)C(=O)O [Peptide 1261.02],IC50,[19],43.5 nM
same,IC50,[20],24.7 nM
same,IC50,[21],645 nM
same,Immunogenicity transgenic,"[22]; A2 Supermotif peptides, positive/tested transgenic",1/6
same,Immunogenicity transgenic,"[22]; A*0201/K^b transgenic mice, positive/tested",1/6
same,Immunogenicity patients,"[17]; A2-supertype peptides, positive/tested HIV-infected patients",2/8
same,Immunogenicity patients,"[17]; A2 Supermotif peptides, positive/tested patients",2/8
CPKVSFEPI [1296.02],IC50,[3],100 nM
same,IC50,[4],5140 nM
same,IC50,[5],2450 nM
same,IC50,[2],100 nM
FPISPIETV [Peptide 1261.01],IC50,[3],3440 nM
same,IC50,[4],1040 nM
same,IC50,[2],9.1 nM
HPVHAGPIA [1292.13],IC50,[3],50 nM
same,IC50,[4],11.6 nM
same,IC50,[5],4430 nM
same,IC50,[2],4.3 nM
IPYNPQSQGVV [1296.03],IC50,[4],72000 nM
same,IC50,[1],120 nM
same,IC50,[5],46500 nM
same,IC50,[2],66.7 nM
QQHLLQLTVWGTKQL,DR3 binding,[6]; [23],−0.0043
same,DR4w4 binding,[7]; [23],0.0330
same,DR4w15 binding,[8]; [23],0.2700
same,DR7 binding,[9],0.3900
same,DR8w2 binding,[10],0.0210
same,DR9 binding,[11],0.5100
same,DR5w11 binding,[12],0.0036
same,DR5w12 binding,[13]; [23],0.4900
same,DR6w19 binding,[14]; [23],0.0180
same,DR2 wβ1 binding,[15]; [23],0.7500
same,DR2w2β2 binding,[16],0.0580
VPLQLPPL [29.0028],IC50,[4],6000 nM
same,IC50,[1],0.8 nM
same,IC50,[5],46500 nM
same,IC50,[2],270 nM
